According to patent publication US20110014243A1, “PHARMACEUTICAL COMPOSITIONS” (priority 2007, published 2011):

Experiment: Stability of milled and unmilled Compound 1A in combination with calcium carbonate, HPLC
Assay type: physicochemical
Conditions: mixed with calcium carbonate, open vials at 50° C. and 75% relative humidity
Procedure: Samples containing 1092 mg of calcium carbonate and […] Compound 1A (either milled or unmilled) were prepared and weighed into small amber glass bottles. Samples were stored in open vials at 50° C. and 75% relative humidity. The samples were then removed after two or four weeks and stored at room temperature for up to four days prior to being analysed and were stored in open vials at 50° C. and 75% RH. The blends of Compound 1A and calcium carbonate were transferred to a glass volumetric flask and diluted to a volume of 10 ml or 100 ml with a 0.05% trifluoroacetic acid (TFA) solution in 50/50 acetonitrile/water to provide a 1 mg/ml solution of Compound 1A. The solution was stirred using a magnetic stirrer for 20 minutes then left for 5 minutes before 1 ml aliquots were taken using a plastic syringe. The aliquots were filtered through a 0.45 μm syringe filter into amber glass vials for HPLC analysis.

area % of Compound 2A compared to Compound 1A (milled, 2 weeks): 0.2 area %
area % of Compound 2A compared to Compound 1A (milled, 4 weeks): 0.2 area %
area % of Compound 2A compared to Compound 1A (unmilled, 2 weeks): 0.2 area %
area % of Compound 2A compared to Compound 1A (unmilled, 4 weeks): 0.2 area %
SMILES: CC(C)c1cc(Oc2c(Br)cc(NC(=O)CC(=O)O)cc2Br)ccc1O [Compound 1A, 3-[[3,5-Dibromo-4-[4-hydroxy-3-(1-methylethyl)-phenoxy]-phenyl]-amino]-3-oxopropanoic acid]
